Data published in patent US6974831B2, “sPLA2 inhibitors” (Eli Lilly and Company, priority 2000, dated 2005).

Target: T1, recombinant human secreted phospholipase A2 (Homo sapiens, UniProt P14555)
T1 sequence (P14555 21-144): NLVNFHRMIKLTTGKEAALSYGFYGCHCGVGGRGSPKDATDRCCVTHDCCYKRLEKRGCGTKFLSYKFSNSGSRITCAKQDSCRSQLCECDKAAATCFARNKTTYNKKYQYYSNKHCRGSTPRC
Assay: chromogenic assay of sPLA2 inhibition (diheptanoyl thio-PC / DTNB, 96 well microtiter plates)
Assay type: biochemical
Conditions: absorbance at 405 nanometers, 40° C. for 30 minutes, pH 7.5, titrated in triplicate and averaged
Source text: The following chromogenic assay procedure was used to identify and evaluate inhibitors of recombinant human secreted phospholipase A2. The assay described herein has been adapted for high volume screening using 96 well microtiter plates. A general description of this assay method is found in the article, “Analysis of Human Synovial Fluid Phospholipase A2 on Short Chain Phosphatidylcholine-Mixed Micelles: Development of a Spectrophotometric Assay Suitable for a Microtiterplate Reader”, by Laure J. Reynolds, Lori L. Hughes, and Edward A Dennis, Analytical Biochemistry, 204, pp. 190-197, 1992 (the disclosure of which is incorporated herein by reference):
REACTION BUFFER— • CaCl2.2H2O (1.47 g/L) • KCl (7.455 g/L) • Bovine Serum Albumin (fatty acid free) (1 g/L) • (Sigma A-7030, product of Sigma • Chemical Co., St. Louis Mo., USA) • TRIS HCl (3.94 g/L) • pH 7.5 (adjust with NaOH)
ENZYME BUFFER— • 0.05 NaOAc.3H2O, pH 4.5 • 0.2 NaCl • Adjust pH to 4.5 with acetic acid
DTNB—5,5′-dithiobis-2-nitrobenzoic acid
RACEMIC DIHEPTANOYL THIO—PC • racemic 1,2-bis(heptanoylthio)-1,2-dideoxy-sn-glycero-3-phosphorylcholine • TRITON X-100™ prepare at 6.249 mg/ml in reaction buffer to equal […].
A measured volume of racemic dipheptanoyl thio PC supplied in chloroform at a concentration of 100 mg/ml is taken to dryness and redissolved in 10 millimolar TRITON X-100™ nonionic detergent aqueous solution. Reaction Buffer is added to the solution, then DTNB to give the Reaction Mixture.
The reaction mixture thus obtained contains 1 mM diheptanoly thio-PC substrate, 0.29 mm Triton X-100™ detergent, and 0.12 mm DTMB in a buffered aqueous solution at pH 7.5.
• 1. Add 0.2 ml reaction mixture to all wells; • 2. Add 10 ul test compound (or solvent blank) to appropriate wells, mix 20 seconds; • 3. Add 50 nanograms of sPLA2 (10 microliters) to appropriate wells; • 4. Incubate plate at 40° C. for 30 minutes; • 5. Read absorbance of wells at 405 nanometers with an automatic plate reader.
Tests were done in triplicate. Typically, compounds were tested at a final concentration of 5 ug/ml. […] Lack of color development at 405 nanometers evidenced inhibition. Compounds initially found to be active were re-assayed to confirm their activity and, if sufficiently active, IC50 values were determined. […] In all cases, % inhibition measured at 405 nanometers generated by enzyme reactions containing inhibitors relative to the uninhibited control reactions was determined. Each sample was titrated in triplicate and result values were averaged for plotting and calculation of IC50 values. IC50 values were determined by plotting log concentration versus inhibition values in the range from 10-90% inhibition.

Row | Compound | IC50
1 | CCc1c(C(=O)C(N)=O)c2c(OCC(=O)OC)cc3c(c2n1Cc1ccccc1)CCC3 [Example 1, 2-[[3-(2-Amino-1,2-dioxoethyl)-2-ethyl-1-benzyl-1,6,7,8-tetrahydrocyclo-pent[g]indol-4-yl]oxy]acetic acid methyl ester] | 0.108 µM
2 | CCc1c(C(=O)C(N)=O)c2c(OCC(=O)O)cc3c(c2n1Cc1ccccc1)CCC3 [Example 2, 2-[[3-(2-Amino-1,2-dioxoethyl)-2-ethyl-1-benzyl-1,6,7,8-tetrahydrocyclo-pent[g]indol-4-yl]oxy]acetic acid] | 0.013 µM
3 | COC(=O)COc1cc2c(c3c1c(C(=O)C(N)=O)c(C)n3Cc1ccccc1)CCC2 [Example 3, 2-[[3-(2-Amino-1,2-dioxoethyl)-2-methyl-1-benzyl-1,6,7,8-tetrahydrocyclo-pent[g]indol-4-yl]oxy]acetic acid methyl ester] | 0.106 µM
4 | Cc1c(C(=O)C(N)=O)c2c(OCC(=O)O)cc3c(c2n1Cc1ccccc1)CCC3 [Example 4, 2-[[3-(2-Amino-1,2-dioxoethyl)-2-methyl-1-benzyl-1,6,7,8-tetrahydrocyclopent[g]indol-4-yl]oxy]acetic acid] | 0.01 µM
5 | Cc1c(C(=O)C(N)=O)c2c(OCC(=O)NS(=O)(=O)c3ccccc3)cc3c(c2n1Cc1ccccc1)CCC3 [Example 5, 2-[4-(2-Benzenesulfonylamino-2-oxoethoxy)-1-benzyl-2-methyl-1,6,7,8-tetrahydro-1-aza-as-indacen-3-yl]-2-oxoacetamide] | 0.007 µM
6 | COC(=O)COc1cc2c(c3c1c(C(=O)C(N)=O)c(C)n3Cc1cccc(F)c1)CCC2 [Example 6, 2-[[3-(2-Amino-1,2-dioxoethyl)-2-methyl-1-(3-fluorobenzyl)-1,6,7,8-tetrahydrocyclopent[g]indol-4-yl]oxy]acetic Acid methyl ester] | 0.132 µM
7 | Cc1c(C(=O)C(N)=O)c2c(OCC(=O)O)cc3c(c2n1Cc1cccc(F)c1)CCC3 [Example 7, 2-[[3-(2-Amino-1,2-dioxoethyl)-2-methyl-1-(3-fluorobenzyl)-1,6,7,8-tetrahydrocyclopent[g]indol-4-yl]oxy]acetic acid hydrate] | 0.01 µM
8 | COC(=O)COc1cc2c(c3c1c(C(=O)C(N)=O)c(C)n3Cc1ccccc1F)CCC2 [Example 8, 2-[[3-(2-Amino-1,2-dioxoethyl)-2-methyl-1-(2-fluorobenzyl)-1,6,7,8-tetrahydrocyclopent[g]indol-4-yl]oxy]acetic acid methyl ester] | 0.073 µM
9 | Cc1c(C(=O)C(N)=O)c2c(OCC(=O)O)cc3c(c2n1Cc1ccccc1F)CCC3 [Example 9, 2-[[3-(2-Amino-1,2-dioxoethyl)-2-methyl-1-(2-fluorobenzyl)-1,6,7,8-tetrahydrocyclopent[g]indol-4-yl]oxy]acetic acid] | 0.009 µM
10 | COC(=O)COc1cc2c(c3c1c(C(=O)C(N)=O)c(C)n3Cc1ccc(F)cc1)CCC2 [Example 10, 2-[[3-(2-Amino-1,2-dioxoethyl)-2-methyl-1-(4-fluorobenzyl)-1,6,7,8-tetrahydrocyclopent[g]indol-4-yl]oxy]acetic acid methyl ester] | 0.806 µM
11 | Cc1c(C(=O)C(N)=O)c2c(OCC(=O)O)cc3c(c2n1Cc1ccc(F)cc1)CCC3 [Example 11, 2-[[3-(2-Amino-1,2-dioxoethyl)-2-methyl-1-(4-fluorobenzyl)-1,6,7,8-tetrahydrocyclopent[g]indol-4-yl]oxy]acetic acid] | 0.082 µM
12 | CCc1c(C(=O)C(N)=O)c2c(OCC(=O)OC)cc3c(c2n1Cc1ccccc1)CCCC3 [Example 12, 2-[[3-(2-Amino-1,2-dioxoethyl)-1-benzyl-2-ethyl-6,7,8,9-tetrahydro-1H-benz[g]indol-4-yl]oxy]acetic acid methyl ester] | 0.1 µM
13 | CCc1c(C(=O)C(N)=O)c2c(OCC(=O)O)cc3c(c2n1Cc1ccccc1)CCCC3 [Example 13, 2-[[3-(2-Amino-1,2-dioxoethyl)-1-benzyl-2-ethyl-6,7,8,9-tetrahydro-1H-benz[g]indol-4-yl]oxy]acetic acid] | 0.011 µM
14 | COC(=O)COc1cc2c(c3c1c(C(=O)C(N)=O)c(C)n3Cc1ccccc1)CCCC2 [Example 14, 2-[[3-(2-Amino-1,2-dioxoethyl)-1-benzyl-2-methyl-6,7,8,9-tetrahydro-1H-benz[g]indol-4-yl]oxy]acetic acid methyl ester] | 0.109 µM
15 | Cc1c(C(=O)C(N)=O)c2c(OCC(=O)O)cc3c(c2n1Cc1ccccc1)CCCC3 [Example 15, 2-[[3-(2-Amino-1,2-dioxoethyl)-1-benzyl-2-methyl-6,7,8,9-tetrahydro-1H-benz[g]indol-4-yl]oxy]acetic acid] | 0.01 µM
16 | COC(=O)COc1cc2c(c3c1c(C(=O)C(N)=O)c(C)n3Cc1ccccc1Br)CCC2 [Example 16, 2-[[3-(2-Amino-1,2-dioxoethyl)-2-methyl-1-(2-bromobenzyl)-1,6,7,8-tetrahydrocyclopent[g]indol-4-yl]oxy]acetic acid methyl ester] | 0.453 µM
17 | Cc1c(C(=O)C(N)=O)c2c(OCC(=O)O)cc3c(c2n1Cc1ccccc1Br)CCC3 [Example 17, 2-[[3-(2-Amino-1,2-dioxoethyl)-2-methyl-1-(2-bromobenzyl)-1,6,7,8-tetrahydrocyclopent[g]indol-4-yl]oxy]acetic acid] | 0.01 µM
18 | COC(=O)COc1cc2c(c3c1c(C(=O)C(N)=O)c(C)n3Cc1ccccc1-c1ccccc1)CCC2 [Example 18, 2-[[3-(2-Amino-1,2-dioxoethyl)-2-methyl-1-(2-phenylbenzyl)-1,6,7,8-tetrahydrocyclopent[g]indol-4-yl]oxy]acetic acid methyl ester] | 0.19 µM
19 | Cc1c(C(=O)C(N)=O)c2c(OCC(=O)O)cc3c(c2n1Cc1ccccc1-c1ccccc1)CCC3 [Example 19, 2-[[3-(2-Amino-1,2-dioxoethyl)-2-methyl-1-(2-phenylbenzyl)-1,6,7,8-tetrahydrocyclopent[g]indol-4-yl]oxy]acetic acid] | 0.035 µM
20 | COC(=O)COc1cc2c(c3c1c(C(=O)C(N)=O)c(C)n3Cc1ccccc1-c1ccc(Br)s1)CCC2 [Example 20, 2-[[3-(2-amino-1,2-dioxoethyl)-1-[2-(5-bromothiophen-2-yl)benzyl]-2-methyl-1,6,7,8-tetrahydrocyclopent[g]indol-4-yl]oxy]acetic acid methyl ester] | 0.638 µM
21 | Cc1c(C(=O)C(N)=O)c2c(OCC(=O)O)cc3c(c2n1Cc1ccccc1-c1ccc(Br)s1)CCC3 [Example 21, 2-[[3-(2-amino-1,2-dioxoethyl)-2-methyl-1-[2-(5-bromothiophen-2-yl)benzyl]-1,6,7,8-tetrahydrocyclopent[g]indol-4-yl]oxy]acetic acid] | 0.044 µM

Test system: not given
Assay: not given
Conditions: not given

Row | Compound | melting point
22 | COC(=O)COc1cc2c(c3c1c(C(=O)C(N)=O)c(C)n3Cc1ccc(F)cc1)CCC2 [Example 10, 2-[[3-(2-Amino-1,2-dioxoethyl)-2-methyl-1-(4-fluorobenzyl)-1,6,7,8-tetrahydrocyclopent[g]indol-4-yl]oxy]acetic acid methyl ester] | 222 to 224 °C
